This passage reports IC50 results from patent publication EP3345917A1, “ANTIPROTOZOAL COMPOUNDS” (Bacoba AG, priority 2017, dated 2018).

Series [1] relates to intracellular Leishmania donovani (L.don. InMac). As to the kind of experiment: Intracellular Leishmania donovani assay (L.don. InMac). It counts as cell-based. The following applies: In vitro inhibition. From the text: (§1) Tests were done in triplicate.
Series [2] concerns Axenically grown Leishmania donovani amastigotes (strain MHOM/ET/67/L82). The series is described as follows: Axenic Leishmania donovani amastigote resazurin assay. The following applies: In vitro inhibition, read-out: L.don. ax. It counts as cell-based. Summed up: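 IC50 values derive from resazurin fluorescence (ex 536 nm, em 588 nm), expressed relative to the negative control, after 2-4 hours of plate development. Axenic amastigotes of strain MHOM/ET/67/L82 were used; each test run in triplicate.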
In general terms: Resazurin is reduced to fluorescent resorufin, in cell work by metabolically active cells.

The test system of series [3] is Trypanosoma cruzi trypomastigote forms (Tulahuen strain). The series is described as follows: Intracellular Trypanosoma cruzi assay in L6-cells, beta-galactosidase/CPRG readout. The following applies: In vitro inhibition, read-out: T.cruzi. In kind it is cell-based. Summed up:
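Readout was β-galactosidase cleavage of CPRG, read photometrically at 540 nm after 2–6 h colour development, giving IC50 values. Parasites: LacZ-expressing Tulahuen C2C4 strain grown in rat L6 myoblasts; run in triplicate.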

The next series relates to Plasmodium falciparum. The series is described as follows: 3H-hypoxanthine incorporation assay against Plasmodium falciparum. Particulars: In vitro inhibition, read-out: P.falc NF5. It counts as cell-based. As to the method:
as §1
IC50 values were calculated by linear interpolation.

Series [4] concerns Trypanosoma brucei rhodesiense (STIB 900 strain). As to the kind of experiment: Alamar Blue assay against Trypanosoma brucei rhodesiense grown in axenic medium. In kind it is cell-based. Particulars: In vitro inhibition, read-out: T.b.rhod. The essentials: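 Alamar Blue-based IC50 determination, in triplicate, on axenically grown STIB 900 trypanosomes. Melarsoprol included as reference.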

Series [5] is described as follows: Cytotoxicity assay on L6-cells (Alamar Blue). The following applies: rat, Cytotox L6, Cytotoxicity against rat myoblast cells (L6).

Read-outs that look alike come from different tables or passages of the source. Non-standard residues stand in square brackets, D forms with d. Residues, ends and D or L forms follow the SMILES beside them. *: point of attachment. Adamantane1carbonyl = O=C(C12CC3CC(CC(C3)C1)C2)*; Hexenoyl(2E,4S-Me) = CC[C@H](C)/C=C/C(=O)*; Leu(3R-OH) = CC(C)[C@@H](O)[C@H](N)C(=O)O; NH((S)CH(Me)CH2NMe2) = C[C@@H](CN(C)C)N*; Gly(octyl) = CCCCCCCC[C@H](N)C(=O)O; Oxazole4CO(2-Me) = Cc1nc(C(=O)*)co1; hCha = N[C@@H](CCC1CCCCC1)C(=O)O; X19 = O=C(c1ccnc2cc(Cl)ccc12)*; X17 = C[C@@H](CN1CCOCC1)N*; X21 = O=C(c1ccc2ocnc2c1)*; Hexanoyl = CCCCCC(=O)*; Aib = CC(C)(N)C(=O)O; Bz = O=C(c1ccccc1)*; βAla = NCCC(=O)O; NHcPr = C1CC1N*

As to `CCCCCCCC[C@H](NC(=O)[C@@H]1CCCN1C(=O)c1ccccc1)C(=O)N[C@@H](CC(C)C)C(=O)NC(C)(C)C(=O)N[C@@H](CC(C)C)C(=O)N[C@@H](CC(C)C)C(=O)NC(C)(C)C(=O)NC(C)(C)C(=O)NCCC(=O)N[C@@H](C)CN(C)C` [Compound 5649, (2S)-2-{[(2S)-1-benzoylpyrrolidin-2-yl]formamido}-N-[(1S)-1-[(1-{[(1S)-1-{[(1S)-1-{[1-({1-[(2-{[(2S)-1-(dimethylamino)propan-2-yl]carbamoyl}ethyl)carbamoyl]-1-methylethyl}carbamoyl)-1-methylethyl]carbamoyl}-3-methylbutyl]carbamoyl}-3-methylbutyl]carbamoyl}-1-methylethyl)carbamoyl]-3-methylbutyl]decanamide] (Bz-P[Gly(octyl)]L[Aib]LL[Aib][Aib][βAla]-{NH((S)CH(Me)CH2NMe2)}), the IC50 in series [1] was found to be 27.2 nM; in series [2], 3.5 nM; in series [3], 8.8 nM; in the series on Plasmodium falciparum, 2.1 nM; in series [4], 0.7 nM.
On to `CCCCCCCCCCCCCCCCOP(=O)([O-])OCC[N+](C)(C)C` [Miltefosine], for which the IC50 turned out to be 1200 nM in series [1] and 118 nM in series [2] (axenic Leishmania donovani).
As to `CCCCCCCC[C@H](NC(=O)[C@@H]1CCCN1C(=O)C12CC3CC(CC(C3)C1)C2)C(=O)N[C@@H](CC(C)C)C(=O)NC(C)(C)C(=O)N[C@@H](CC(C)C)C(=O)N[C@@H](CC(C)C)C(=O)NC(C)(C)C(=O)NC(C)(C)C(=O)NCCC(=O)N[C@@H](C)CN(C)C` [Compound 5770, (2S)-2-{[(2S)-1-(adamantane-1-carbonyl)pyrrolidin-2-yl]formamido}-N-[(1S)-1-[(1-{[(1S)-1-{[(1S)-1-{[1-({1-[(2-{[(2S)-1-(dimethylamino)propan-2-yl]carbamoyl}ethyl)carbamoyl]-1-methylethyl}carbamoyl)-1-methylethyl]carbamoyl}-3-methylbutyl]carbamoyl}-3-methylbutyl]carbamoyl}-1-methylethyl)carbamoyl]-3-methylbutyl]decanamide] (Adamantane1carbonyl-P[Gly(octyl)]L[Aib]LL[Aib][Aib][βAla]-{NH((S)CH(Me)CH2NMe2)}), the IC50 in series [1] is 338 nM; in series [2], 1 nM; in series [3], 101 nM; with Plasmodium falciparum it was 3.3 nM; in series [4], 0.6 nM.
For `CCCCCCCC[C@H](NC(=O)[C@@H]1CCCN1C(=O)c1ccnc2cc(Cl)ccc12)C(=O)N[C@@H](CC(C)C)C(=O)NC(C)(C)C(=O)N[C@@H](CC(C)C)C(=O)N[C@@H](CC(C)C)C(=O)NC(C)(C)C(=O)NC(C)(C)C(=O)NCCC(=O)N[C@@H](C)CN(C)C` [Compound 5768, (2S)-2-{[(2S)-1-(7-chloroquinoline-4-carbonyl)pyrrolidin-2-yl]formamido}-N-[(1S)-1-[(1-{[(1S)-1-{[(1S)-1-{[1-({1-[(2-{[(2S)-1-(dimethylamino)propan-2-yl]carbamoyl}ethyl)carbamoyl]-1-methylethyl}carbamoyl)-1-methylethyl]carbamoyl}-3-methylbutyl]carbamoyl}-3-methylbutyl]carbamoyl}-1-methylethyl)carbamoyl]-3-methylbutyl]decanamide] (X19-P[Gly(octyl)]L[Aib]LL[Aib][Aib][βAla]-{NH((S)CH(Me)CH2NMe2)}) the same measures were 257 nM, 33.5 nM, 373 nM, 24.5 nM and 8.7 nM.
For the molecule `CCCCCCCC[C@H](NC(=O)[C@@H]1CCCN1C(=O)c1coc(C)n1)C(=O)N[C@@H](CC(C)C)C(=O)NC(C)(C)C(=O)N[C@@H](CC(C)C)C(=O)N[C@@H](CC(C)C)C(=O)NC(C)(C)C(=O)NC(C)(C)C(=O)NCCC(=O)N[C@@H](C)CN(C)C` [Compound 5905, (2S)-N-[(1S)-1-[(1-{[(1S)-1-{[(1S)-1-{[1-({1-[(2-{[(2S)-1-(dimethylamino)propan-2-yl]carbamoyl}ethyl)carbamoyl]-1-methylethyl}carbamoyl)-1-methylethyl]carbamoyl}-3-methylbutyl]carbamoyl}-3-methylbutyl]carbamoyl}-1-methylethyl)carbamoyl]-3-methylbutyl]-2-{[(2S)-1-(2-methyl-1,3-oxazole-4-carbonyl)pyrrolidin-2-yl]formamido}decanamide] ({Oxazole4CO(2-Me)}-P[Gly(octyl)]L[Aib]LL[Aib][Aib][βAla]-{NH((S)CH(Me)CH2NMe2)}), the IC50 in series [1] was found to be 42400 nM; in series [2] it was 32000 nM; in series [3] it was 42500 nM; with Plasmodium falciparum it was 26400 nM; in series [4], 0.2 nM.
Turning to `Cc1nc(C(=O)N2CCC[C@H]2C(=O)N[C@@H](CCC2CCCCC2)C(=O)N[C@@H](CC(C)C)C(=O)NC(C)(C)C(=O)N[C@@H](CC(C)C)C(=O)N[C@@H](CC(C)C)C(=O)NC(C)(C)C(=O)NC(C)(C)C(=O)NCCC(=O)N[C@@H](C)CN2CCOCC2)co1` [Compound 6026] ({Oxazole4CO(2-Me)}-P[hCha]L[Aib]LL[Aib][Aib][βAla]-X17), the IC50 in series [1] came out at 50.7 nM; in series [2] it was 44700 nM; in series [3] it was 422 nM; with Plasmodium falciparum it was 38 nM; in series [4] it was 41400 nM.
Turning to `CCCCCCCC[C@H](NC(=O)[C@@H]1CCCN1C(=O)c1ccc2ocnc2c1)C(=O)N[C@@H](CC(C)C)C(=O)NC(C)(C)C(=O)N[C@@H](CC(C)C)C(=O)N[C@@H](CC(C)C)C(=O)NC(C)(C)C(=O)NC(C)(C)C(=O)NCCC(=O)N[C@@H](C)CN(C)C` [Compound 5937] (X21-P[Gly(octyl)]L[Aib]LL[Aib][Aib][βAla]-{NH((S)CH(Me)CH2NMe2)}), the IC50 in series [1] turned out to be 58.5 nM; in series [2], 21.2 nM; in series [3], 45.4 nM; with Plasmodium falciparum, 27600 nM; in series [4], 43500 nM.
In turn, `CCCCCCCC[C@H](NC(=O)[C@H](C)NC(=O)/C=C/[C@@H](C)CC)C(=O)N[C@H](C(=O)NC(C)(C)C(=O)N[C@@H](CC(C)C)C(=O)N[C@@H](CC(C)C)C(=O)NC(C)(C)C(=O)NC(C)(C)C(=O)NCCC(=O)N[C@@H](C)CN(C)C)[C@H](O)C(C)C` [Compound 5527, (2S)-N-[(1S,2R)-1-[(1-{[(1S)-1-{[(1S)-1-{[1-({1-[(2-{[(2S)-1-(dimethylamino)propan-2-yl]carbamoyl}ethyl)carbamoyl]-1-methylethyl}carbamoyl)-1-methylethyl]carbamoyl}-3-methylbutyl]carbamoyl}-3-methylbutyl]carbamoyl}-1-methylethyl)carbamoyl]-2-hydroxy-3-methylbutyl]-2-[(2S)-2-[(2E,4S)-4-methylhex-2-enamido]propanamido]decanamide] ({Hexenoyl(2E,4S-Me)}-A[Gly(octyl)][Leu(3R-OH)][Aib]LL[Aib][Aib][βAla]-{NH((S)CH(Me)CH2NMe2)}) showed an IC50 at 70 h in series [5] of 274 nM. Also, the IC50 amounted to 1.1 nM in series [2], 67.9 nM in series [3], 8.4 nM with Plasmodium falciparum and 1.8 nM in series [4].
In the same order, the values of `CCCCCCCC[C@H](NC(=O)[C@H](C)NC(=O)CCCCC)C(=O)N[C@H](C(=O)NC(C)(C)C(=O)N[C@@H](CC(C)C)C(=O)N[C@@H](CC(C)C)C(=O)NC(C)(C)C(=O)NC(C)(C)C(=O)NCCC(=O)N[C@@H](C)CN(C)C)[C@@H](C)O` [Compound 5605, (2S)-N-[(1S,2R)-1-[(1-{[(1S)-1-{[(1S)-1-{[1-({1-[(2-{[(2S)-1-(dimethylamino)propan-2-yl]carbamoyl}ethyl)carbamoyl]-1-methylethyl}carbamoyl)-1-methylethyl]carbamoyl}-3-methylbutyl]carbamoyl}-3-methylbutyl]carbamoyl}-1-methylethyl)carbamoyl]-2-hydroxypropyl]-2-[(2S)-2-hexanamidopropanamido]decanamide] (Hexanoyl-A[Gly(octyl)]T[Aib]LL[Aib][Aib][βAla]-{NH((S)CH(Me)CH2NMe2)}) are 2480 nM, 78.6 nM, 1840 nM, 39.3 nM and 22.8 nM.
For `CCCCCCCC[C@H](NC(=O)[C@@H]1CCCN1C(=O)CCCCC)C(=O)N[C@@H](CC(C)C)C(=O)NC(C)(C)C(=O)N[C@@H](CC(C)C)C(=O)N[C@@H](CC(C)C)C(=O)NC(C)(C)C(=O)NC(C)(C)C(=O)NCCC(=O)NC1CC1` [Compound 5645, (2S)-N-[(1S)-1-[(1-{[(1S)-1-{[(1S)-1-({1-[(1-{[2-(cyclopropylcarbamoyl)ethyl]carbamoyl}-1-methylethyl)carbamoyl]-1-methylethyl}carbamoyl)-3-methylbutyl]carbamoyl}-3-methylbutyl]carbamoyl}-1-methylethyl)carbamoyl]-3-methylbutyl]-2-{[(2S)-1-hexanoylpyrrolidin-2-yl]formamido}decanamide] (Hexanoyl-P[Gly(octyl)]L[Aib]LL[Aib][Aib][βAla]-NHcPr) the same measures were 1230 nM, 168 nM, 4240 nM, 13.8 nM and 537 nM.
